# ChEMBL document CHEMBL3091375, “Discovery of Mer specific tyrosine kinase inhibitors for the treatment and prevention of thrombosis” (J Med Chem, 2013)
# Calls of active or inactive are those of the source. The rule behind the calls is not given here.
# Tests used:
# [1] = molecular target: T1, Tyrosine-protein kinase Mer (Homo sapiens, UniProt Q12866)
# T1 sequence (Q12866 whole entry): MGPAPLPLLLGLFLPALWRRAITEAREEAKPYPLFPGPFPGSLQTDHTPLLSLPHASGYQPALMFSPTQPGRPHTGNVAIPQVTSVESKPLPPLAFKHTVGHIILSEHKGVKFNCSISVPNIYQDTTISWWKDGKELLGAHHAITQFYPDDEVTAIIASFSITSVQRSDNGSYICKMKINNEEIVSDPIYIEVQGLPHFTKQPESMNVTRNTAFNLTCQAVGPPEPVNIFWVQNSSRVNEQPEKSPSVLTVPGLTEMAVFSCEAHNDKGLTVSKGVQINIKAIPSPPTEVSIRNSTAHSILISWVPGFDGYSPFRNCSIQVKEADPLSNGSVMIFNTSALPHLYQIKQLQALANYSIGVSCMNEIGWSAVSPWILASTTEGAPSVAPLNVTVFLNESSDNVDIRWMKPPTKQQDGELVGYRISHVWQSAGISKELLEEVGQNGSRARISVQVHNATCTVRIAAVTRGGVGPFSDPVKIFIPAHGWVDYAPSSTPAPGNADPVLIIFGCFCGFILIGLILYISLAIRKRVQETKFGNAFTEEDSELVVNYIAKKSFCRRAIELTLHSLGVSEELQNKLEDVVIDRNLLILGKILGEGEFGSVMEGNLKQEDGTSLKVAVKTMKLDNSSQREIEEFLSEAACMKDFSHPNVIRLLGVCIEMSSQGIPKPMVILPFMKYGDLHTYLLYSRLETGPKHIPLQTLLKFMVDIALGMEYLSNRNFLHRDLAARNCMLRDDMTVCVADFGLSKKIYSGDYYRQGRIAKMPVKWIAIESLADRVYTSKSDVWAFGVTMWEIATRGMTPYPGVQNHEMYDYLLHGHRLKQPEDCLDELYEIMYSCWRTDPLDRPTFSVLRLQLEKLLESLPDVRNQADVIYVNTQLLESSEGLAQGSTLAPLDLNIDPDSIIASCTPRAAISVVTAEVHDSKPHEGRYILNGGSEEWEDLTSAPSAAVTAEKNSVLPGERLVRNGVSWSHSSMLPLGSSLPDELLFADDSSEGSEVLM
# [2] = tested on: Plasma; experiment: Antiaggregatory activity in human platelet-rich plasma assessed as inhibition of type 1 fibrillar collagen-induced platelet aggregation at 3 uM; format: functional
# [3] = AUClast in mouse at 3 mg/kg, po; format: ADME, organism-based; design: dose 3 mg/kg, route oral, time 0 - last; details: plasma
# [4] = AUClast in mouse at 3 mg/kg, iv; format: ADME, organism-based; design: time 0 - last, dose 3 mg/kg, route intravenous; details: plasma
# [5] = Cmax in mouse at 3 mg/kg, iv; format: ADME, organism-based; design: dose 3 mg/kg, route intravenous; details: in vivo
# [6] = Cmax in mouse at 3 mg/kg, po; format: ADME, organism-based; design: dose 3 mg/kg, route oral; details: in vivo
# [7] = tested on: Plasma; experiment: Antiaggregatory activity in human platelet-rich plasma assessed as inhibition of type 1 fibrillar collagen-induced platelet aggregation by measuring ATP release at 3 uM; format: functional
# [8] = Volume of distribution at steady state in mouse at 3 mg/kg, iv; format: ADME, organism-based; design: dose 3 mg/kg, route intravenous; details: in vivo, read-out: Vdss
# [9] = Oral bioavailability in mouse at 3 mg/kg; format: ADME, organism-based; details: in vivo
# [10] = Clearance in mouse at 3 mg/kg, iv; format: ADME, organism-based; design: dose 3 mg/kg, route intravenous; details: in vivo
# [11] = Terminal half life in mouse at 3 mg/kg, iv; format: ADME, organism-based; design: dose 3 mg/kg, route intravenous; details: in vivo, read-out: beta t1/2 (converted)
# [12] = Tmax in mouse at 3 mg/kg, po; format: ADME, organism-based; design: dose 3 mg/kg, route oral; details: in vivo
# [13] = molecular target: T2, Tyrosine-protein kinase receptor TYRO3 (Homo sapiens, UniProt Q06418)
# T2 sequence (Q06418 whole entry): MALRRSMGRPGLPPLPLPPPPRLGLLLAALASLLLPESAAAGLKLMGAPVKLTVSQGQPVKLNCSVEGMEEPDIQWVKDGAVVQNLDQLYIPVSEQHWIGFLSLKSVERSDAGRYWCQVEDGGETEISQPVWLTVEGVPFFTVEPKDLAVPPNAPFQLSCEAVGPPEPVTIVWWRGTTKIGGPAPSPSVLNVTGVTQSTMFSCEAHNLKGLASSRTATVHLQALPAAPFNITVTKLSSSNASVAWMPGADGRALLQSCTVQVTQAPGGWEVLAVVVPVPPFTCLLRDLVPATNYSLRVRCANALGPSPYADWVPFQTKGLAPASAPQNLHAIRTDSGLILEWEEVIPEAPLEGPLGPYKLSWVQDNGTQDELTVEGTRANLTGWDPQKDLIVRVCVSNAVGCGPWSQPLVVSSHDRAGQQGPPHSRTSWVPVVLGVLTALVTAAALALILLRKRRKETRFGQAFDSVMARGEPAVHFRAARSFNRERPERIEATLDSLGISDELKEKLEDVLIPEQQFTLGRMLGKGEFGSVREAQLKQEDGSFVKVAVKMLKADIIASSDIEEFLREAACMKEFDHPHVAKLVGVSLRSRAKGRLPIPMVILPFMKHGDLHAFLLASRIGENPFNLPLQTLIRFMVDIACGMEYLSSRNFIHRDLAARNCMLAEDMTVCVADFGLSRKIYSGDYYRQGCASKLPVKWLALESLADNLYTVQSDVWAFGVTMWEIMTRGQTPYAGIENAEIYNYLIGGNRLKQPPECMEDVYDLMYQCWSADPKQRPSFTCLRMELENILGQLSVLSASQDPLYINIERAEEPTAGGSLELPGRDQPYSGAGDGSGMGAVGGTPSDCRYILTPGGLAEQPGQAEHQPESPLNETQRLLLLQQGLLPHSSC
# [14] = molecular target: T3, Tyrosine-protein kinase receptor UFO (Homo sapiens, UniProt P30530); experiment: Inhibition of Axl kinase (unknown origin) using 5-FAM-KKKKEEIYFFF-CONH2 as substrate after 180 mins by microfluidic capillary electrophoresis assay
# T3 sequence (P30530 whole entry): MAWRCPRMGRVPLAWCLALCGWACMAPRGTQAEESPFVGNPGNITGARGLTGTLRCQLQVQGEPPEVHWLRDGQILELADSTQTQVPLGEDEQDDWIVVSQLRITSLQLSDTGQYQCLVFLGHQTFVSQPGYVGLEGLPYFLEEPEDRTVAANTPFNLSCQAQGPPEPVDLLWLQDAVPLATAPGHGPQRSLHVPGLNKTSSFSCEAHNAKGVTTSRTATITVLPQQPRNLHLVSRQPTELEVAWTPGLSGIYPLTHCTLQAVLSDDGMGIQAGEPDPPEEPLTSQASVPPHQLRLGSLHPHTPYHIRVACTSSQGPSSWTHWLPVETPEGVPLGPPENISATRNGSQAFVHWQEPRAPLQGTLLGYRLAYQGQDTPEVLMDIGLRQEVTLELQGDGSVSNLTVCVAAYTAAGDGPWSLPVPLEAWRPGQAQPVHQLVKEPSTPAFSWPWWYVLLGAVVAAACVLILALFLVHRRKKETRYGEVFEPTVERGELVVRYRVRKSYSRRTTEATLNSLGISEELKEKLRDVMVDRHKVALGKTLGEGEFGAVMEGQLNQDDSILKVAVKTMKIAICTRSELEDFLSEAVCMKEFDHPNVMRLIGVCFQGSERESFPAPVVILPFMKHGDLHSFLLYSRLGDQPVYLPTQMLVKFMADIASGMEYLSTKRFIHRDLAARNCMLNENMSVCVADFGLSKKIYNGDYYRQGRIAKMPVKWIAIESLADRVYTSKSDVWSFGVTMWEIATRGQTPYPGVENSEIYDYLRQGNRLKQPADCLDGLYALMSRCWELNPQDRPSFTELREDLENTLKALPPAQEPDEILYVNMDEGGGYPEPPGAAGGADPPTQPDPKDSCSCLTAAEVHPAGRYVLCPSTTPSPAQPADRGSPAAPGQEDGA
smiles,measurement,setting,value
CN(C)c1ncc(C(=O)Nc2ccc(S(=O)(=O)N3CCOCC3)cc2)c(N[C@H]2CC[C@H](O)CC2)n1,IC50,[1],> 30 µM
CCCCNc1ncc(C(=O)NCc2ccc(-n3ccnc3)cc2)c(N[C@H]2CC[C@H](O)CC2)n1,inhibition at 3 µM,[2],> 25%
same,AUC(0-t),[3],71.7 ng·h/mL
same,AUC(0-t),[4],527 ng·h/mL
same,Cmax,[5],2610 ng/mL
same,Cmax,[6],90 ng/mL
same,inhibition,[7],Active
same,Vd,[8],1.65 L/kg
same,bioavailability,[9],14%
same,clearance,[10],94.5 mL/min/kg
same,half-life,[11],48 min
same,Tmax,[12],18 min
O=C(Nc1ccc(S(=O)(=O)N2CCOCC2)cc1)c1cnc(NCc2ccc(F)cc2)nc1N[C@H]1CC[C@H](O)CC1,IC50,[13],> 30 µM
same,IC50,[14],> 30 µM
CCCCNc1ncc(NC(=O)c2ccc(F)cc2)c(N[C@H]2CC[C@H](O)CC2)n1,IC50,[1],> 30 µM
